One assay has as its target T1, Human ASK1 (Homo sapiens, UniProt Q99683).
T1 construct: expressed in transfected cells; host or cells: HEK293T-AP1
T1 sequence (Q99683 1-1374): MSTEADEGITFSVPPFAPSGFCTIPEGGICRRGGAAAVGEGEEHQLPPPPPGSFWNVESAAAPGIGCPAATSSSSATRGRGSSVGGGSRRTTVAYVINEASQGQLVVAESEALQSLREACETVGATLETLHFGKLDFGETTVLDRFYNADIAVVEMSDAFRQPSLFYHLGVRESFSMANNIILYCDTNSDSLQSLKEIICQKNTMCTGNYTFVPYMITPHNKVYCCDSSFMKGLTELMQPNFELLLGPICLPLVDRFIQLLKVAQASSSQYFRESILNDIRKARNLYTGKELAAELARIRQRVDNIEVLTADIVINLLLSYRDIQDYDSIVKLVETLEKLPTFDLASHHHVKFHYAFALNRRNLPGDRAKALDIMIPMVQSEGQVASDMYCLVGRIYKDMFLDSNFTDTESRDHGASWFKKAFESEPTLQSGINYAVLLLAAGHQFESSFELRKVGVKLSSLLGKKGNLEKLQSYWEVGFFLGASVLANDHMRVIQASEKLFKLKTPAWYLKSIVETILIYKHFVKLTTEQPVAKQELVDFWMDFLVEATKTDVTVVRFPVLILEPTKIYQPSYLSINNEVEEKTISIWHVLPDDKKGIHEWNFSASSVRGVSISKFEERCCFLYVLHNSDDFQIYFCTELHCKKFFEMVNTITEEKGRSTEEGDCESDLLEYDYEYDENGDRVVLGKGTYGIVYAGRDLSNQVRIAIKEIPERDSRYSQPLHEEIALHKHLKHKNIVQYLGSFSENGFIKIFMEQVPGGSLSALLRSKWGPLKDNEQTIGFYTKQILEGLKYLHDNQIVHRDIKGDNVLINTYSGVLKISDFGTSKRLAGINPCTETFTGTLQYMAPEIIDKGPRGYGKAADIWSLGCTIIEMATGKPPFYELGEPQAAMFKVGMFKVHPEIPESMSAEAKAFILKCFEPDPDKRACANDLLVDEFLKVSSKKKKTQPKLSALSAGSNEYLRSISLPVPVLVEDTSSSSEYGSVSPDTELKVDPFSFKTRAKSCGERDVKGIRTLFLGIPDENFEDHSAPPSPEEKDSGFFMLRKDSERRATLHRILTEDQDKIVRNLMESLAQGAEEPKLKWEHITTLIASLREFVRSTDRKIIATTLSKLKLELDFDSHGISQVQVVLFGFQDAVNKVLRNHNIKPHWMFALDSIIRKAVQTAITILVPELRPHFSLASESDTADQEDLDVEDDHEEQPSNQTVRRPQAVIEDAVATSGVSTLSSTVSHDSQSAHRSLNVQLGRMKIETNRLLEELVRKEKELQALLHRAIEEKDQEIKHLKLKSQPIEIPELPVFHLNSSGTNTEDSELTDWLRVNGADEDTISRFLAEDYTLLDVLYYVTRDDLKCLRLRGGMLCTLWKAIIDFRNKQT
The assay can be described thus: ASK1 Cell Based Assay (phospho p38 read out in hASK1 transfected HEK293T-AP1 cells). A digest of the protocol: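 HEK293T-AP1 cells transfected with hASK1, after 24 h treated with compounds for 24 h (0.2% DMSO), then stimulated with 1 mM H2O2 for 1 h with compounds present.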

For a further assay, the target named is T2, recombinant ASK1 (Homo sapiens, UniProt Q99683).
T2 construct: purchased Carna Biosciences
Nature of the assay: ASK1 Biochemical Assay (HTRF KinEASE-STK S3). The gist of the method: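 Recombinant ASK1 (5 ng) preincubated with compound 1 h at 23 °C in MOPS pH 7 buffer with Mg-acetate, DTT, NP40, glycerol, BSA and 1% DMSO. Inhibition calculated against vehicle after substrate-blank subtraction.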

The next assay relates to Male C57BL/6 mice. Nature of the assay: Mouse model of Acetaminophen (APAP) induced Hepatotoxicity. In kind it is in vivo. To be noted: l0mpk and 30mpk; APAP 300 mg/kg i.p.; 6h post APAP; dose dependent, comparable with selonsertib. On the procedure:
Male C57BL/6 mice, 20 to 24 grams body weight at the time of study initiation, were acclimatized at least for 1-3 days prior to experiment initiation. Based on body weight, animal were randomized to different groups and kept for overnight fasting. Animals were treated with test compounds and vehicle for control group. After 30 minutes, APAP (300 mg/kg) was administered by intraperitoneal route (i.p). A vehicle control group was also included in the study as a vehicle control for test compound as well as APAP. All animals were bled 6h post APAP administration from the retro-orbital plexus into appropriately labeled tubes. Serum ALT levels were measured in all groups.

The mark [1] stands for this setting: HEK293T-AP1 cells, 1 mM hydrogen peroxide, phospho p38, read-out: Cell Based Assay IC50.
Where [2] appears, read: comparison with Selonsertib, read-out: ASK1 ph. P38 Cell based Assay (IC50).
Setting [3] is: ATP 100 μM, read-out: Biochemical Assay IC50.
Where [4] appears, read: comparison with Selonsertib, read-out: ASK1 biochemical Assay (IC50).
Setting [5] is: selectivity table, read-out: ASK1 Biochemical Assay IC50.

SMILES strings stand for the structures. Read-outs that look alike come from different tables or passages of the source.

What is called IC50 is the concentration needed to halve the response being measured.

Consider `CC(C)n1cnnc1-c1cccc(N2CCN(c3ccc(N4CCOCC4)cc3)C2=O)n1` [Example 1043, 1-(6-(4-isopropyl-4H-1,2,4-triazol-3-yl)pyridin-2-yl)-3-(4-morpholinophenyl)imidazolidin-2-one], for which the IC50 on Human ASK1 (setting [1]) is 140 nM; on Human ASK1 (setting [2]), 140 nM; on recombinant ASK1 (setting [3]), below 100 nM; on recombinant ASK1 (setting [4]), 4.1 nM; at recombinant ASK1 (setting [5]), 4.1 nM. In the assay on Male C57BL/6 mice, the “reduction in serum ALT levels compared to vehicle” value (“reduction in serum ALT levels” below) is recorded as “significant reduction”.

Regarding `CC(C)n1cnnc1-c1cccc(N2CCN(c3ccc(N4CC(C#N)C4)cc3)C2=O)n1` [Example 1071, 1-(4-(3-(6-(4-isopropyl-4H-1,2,4-triazol-3-yl)pyridin-2-yl)-2-oxoimidazolidin-1-yl)phenyl)azetidine-3-carbonitrile], the IC50 on Human ASK1 (setting [1]) was below 100 nM; at Human ASK1 (setting [2]), 69 nM; on recombinant ASK1 (setting [3]) it was below 100 nM; on recombinant ASK1 (setting [4]), 3.8 nM; on recombinant ASK1 (setting [5]) it was 3.8 nM. For the same molecule, the “reduction in serum ALT levels” value in the assay with Male C57BL/6 mice is given as “significant reduction”.

For the molecule `CNC(=O)C1CCN(c2ccc(N3CCN(c4cccc(-c5nncn5C(C)C)n4)C3=O)cc2)CC1` [Example 1082, 1-(4-(3-(6-(4-isopropyl-4H-1,2,4-triazol-3-yl)pyridin-2-yl)-2-oxoimidazolidin-1-yl)phenyl)-N-methylpiperidine-4-carboxamide], the IC50 on Human ASK1 (setting [1]) is below 100 nM; on Human ASK1 (setting [2]) it was 15 nM; at recombinant ASK1 (setting [3]), below 50 nM; at recombinant ASK1 (setting [4]) it was 1 nM; on recombinant ASK1 (setting [5]) it was 1 nM. Besides, the “reduction in serum ALT levels” value in the assay on Male C57BL/6 mice was “significant reduction”.

In the case of `CC(C)n1cnnc1-c1cccc(N2CCN(c3ccc(N4CCC(C(=O)N(C)C)CC4)cc3)C2=O)n1` [Example 1097, 1-(4-(3-(6-(4-isopropyl-4H-1,2,4-triazol-3-yl)pyridin-2-yl)-2-oxoimidazolidin-1-yl)phenyl)-N,N-dimethylpiperidine-4-carboxamide], the IC50 is below 100 nM at Human ASK1 (setting [1]); 102 nM on Human ASK1 (setting [2]); below 50 nM on recombinant ASK1 (setting [3]); 3.8 nM at recombinant ASK1 (setting [4]); 3.8 nM at recombinant ASK1 (setting [5]). The “reduction in serum ALT levels” value with Male C57BL/6 mice is on record as “significant reduction”.

Source of the values: patent publication US20220332700A1, “NOVEL APOPTOSIS SIGNAL-REGULATING KINASE 1 INHIBITORS” (MANKIND PHARMA LTD, priority 2019, published 2022).
